The conditions of this series: Liquid, Ebulliometric method (Recirculating still).

The structures appear in SMILES notation. Numbers after ± are expanded uncertainties.

One may read the vapor or sublimation pressure as the equilibrium pressure above the liquid or solid. As to `CCC(=O)OC` [methyl propanoate], the “vapor or sublimation pressure” value (352.62 K) is on record as 101.3 ± 3.7 kPa.

Consider `CO` [methanol], for which the “vapor or sublimation pressure” value (337.68 K) turned out to be 101.3 ± 3.7 kPa.

For the origin of these results see the NIST ThermoML archive (doi:10.1016/j.jct.2019.01.004).
